Assay results reported in patent publication US8338465B2, “Cyclic carboxylic acid rhodanine derivatives for the treatment and prevention of tuberculosis” (priority 2006, dated 2012).

Target: T1, dihydrolipoamide acyltransferase (DlaT) (Mycobacterium tuberculosis, UniProt P9WIS7)
T1 sequence (P9WIS7 1-553): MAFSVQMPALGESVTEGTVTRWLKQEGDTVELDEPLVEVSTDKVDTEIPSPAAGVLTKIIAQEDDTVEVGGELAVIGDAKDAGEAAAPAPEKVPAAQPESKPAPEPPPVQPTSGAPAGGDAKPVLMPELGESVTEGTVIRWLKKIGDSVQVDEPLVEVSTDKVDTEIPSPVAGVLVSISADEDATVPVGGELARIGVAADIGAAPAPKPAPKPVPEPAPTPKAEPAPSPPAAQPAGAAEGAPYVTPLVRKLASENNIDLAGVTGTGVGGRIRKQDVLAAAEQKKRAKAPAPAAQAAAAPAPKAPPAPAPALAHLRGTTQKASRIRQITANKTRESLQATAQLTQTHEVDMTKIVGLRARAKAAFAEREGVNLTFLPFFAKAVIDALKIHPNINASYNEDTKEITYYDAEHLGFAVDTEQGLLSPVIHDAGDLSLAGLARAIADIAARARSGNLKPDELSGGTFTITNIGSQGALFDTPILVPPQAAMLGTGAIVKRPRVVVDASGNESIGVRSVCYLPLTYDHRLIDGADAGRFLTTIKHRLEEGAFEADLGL
Assay: DlaT inhibition (Dlat IC50); DTNB peroxidase assay with Lpd, DlaT and AhpD
Type: biochemical
Details: Dlat IC50 category

Structure (SMILES)	IC50 [µM]
O=C(O)C(c1ccccc1)N1C(=O)C(=Cc2ccc(-c3ccccc3Cl)o2)SC1=S (centres unmarked) [Compound B1]	< 10
O=C(O)C(c1ccccc1)N1C(=O)C(=Cc2ccc(-c3cccc(Cl)c3)o2)SC1=S (centres unmarked) [Compound B2]	< 10

Same assay, conditions: Table 1, Compounds A1 to A294; read-out: Dlat IC50 category

Structure (SMILES)	IC50 [µM]
O=C(O)c1cc(N2C(=O)C(=Cc3ccc(-c4ccc(Cl)cc4)o3)SC2=S)cc(C(F)(F)F)c1 [Compound A223]	11 to 40
Cc1ccc(-c2ccc(C=C3SC(=S)N(c4cc(C(=O)O)cc(C(F)(F)F)c4)C3=O)o2)cc1 [Compound A224]	< 10
CCc1ccc(-c2ccc(C=C3SC(=S)N(c4cc(C(=O)O)cc(C(F)(F)F)c4)C3=O)o2)cc1 [Compound A225]	11 to 40
CCCCOc1ccc(-c2ccc(C=C3SC(=S)N(c4cccc(C(=O)O)c4)C3=O)o2)cc1 [Compound A226]	> 41
CCCCOc1ccc(-c2ccc(C=C3SC(=S)N(c4cc(C(=O)O)ccc4F)C3=O)o2)cc1 [Compound A227]	11 to 40
CS(=O)(=O)c1ccc(-c2ccc(C=C3SC(=S)N(c4cccc(C(=O)O)c4)C3=O)o2)cc1 [Compound A228]	< 10
CS(=O)(=O)c1ccc(-c2ccc(C=C3SC(=S)N(c4cc(C(=O)O)ccc4F)C3=O)o2)cc1 [Compound A229]	11 to 40
O=C(O)c1cc(C(=O)O)cc(N2C(=O)C(=Cc3ccc(-c4ccccc4Cl)o3)SC2=S)c1 [Compound A230]	< 10
O=C(O)c1cc(C(=O)O)cc(N2C(=O)C(=Cc3ccc(-c4ccccc4F)o3)SC2=S)c1 [Compound A231]	> 41
O=C(O)c1cc(C(=O)O)cc(N2C(=O)C(=Cc3ccc(-c4ccc(Cl)cc4)o3)SC2=S)c1 [Compound A232]	11 to 40
CCc1ccc(-c2ccc(C=C3SC(=S)N(c4cc(C(=O)O)cc(C(=O)O)c4)C3=O)o2)cc1 [Compound A233]	< 10
Cc1ccccc1-c1ccc(C=C2SC(=S)N(c3cc(C(=O)O)cc(C(F)(F)F)c3)C2=O)o1 [Compound A234]	< 10
Cc1ccccc1-c1ccc(C=C2SC(=S)N(c3cc(C(=O)O)cc(C(=O)O)c3)C2=O)o1 [Compound A235]	< 10
CSc1cccc(-c2ccc(C=C3SC(=S)N(c4cccc(C(=O)O)c4)C3=O)o2)c1 [Compound A236]	< 10
CSc1cccc(-c2ccc(C=C3SC(=S)N(c4cc(C(=O)O)ccc4F)C3=O)o2)c1 [Compound A237]	< 10
CSc1ccc(-c2ccc(C=C3SC(=S)N(c4cccc(C(=O)O)c4)C3=O)o2)cc1 [Compound A238]	< 10
CSc1ccc(-c2ccc(C=C3SC(=S)N(c4cc(C(=O)O)ccc4F)C3=O)o2)cc1 [Compound A239]	< 10
CC(C)Oc1ccc(-c2ccc(C=C3SC(=S)N(c4cccc(C(=O)O)c4)C3=O)o2)cc1 [Compound A240]	< 10
CC(C)Oc1ccc(-c2ccc(C=C3SC(=S)N(c4cc(C(=O)O)ccc4F)C3=O)o2)cc1 [Compound A241]	< 10
Cc1ccc(-c2cccc(C=C3SC(=S)N(c4cccc(C(=O)O)c4)C3=O)c2)cc1 [Compound A242]	11 to 40
Cc1ccc(-c2cccc(C=C3SC(=S)N(c4cc(C(=O)O)ccc4F)C3=O)c2)cc1 [Compound A243]	< 10
O=C(O)c1cccc(N2C(=O)C(=Cc3ccc(-c4ccccc4-c4ccccc4)o3)SC2=S)c1 [Compound A244]	< 10

Structure (SMILES)	IC50 [µM]
O=C(O)c1ccc(F)c(N2C(=O)C(=Cc3ccc(-c4ccccc4-c4ccccc4)o3)SC2=S)c1 [Compound A245]	< 10
Cc1ccc(-c2ccc(C=C3SC(=S)N(c4cccc(C(=O)O)c4)C3=O)cc2)cc1 [Compound A246]	< 10
Cc1ccc(-c2ccc(C=C3SC(=S)N(c4cc(C(=O)O)ccc4F)C3=O)cc2)cc1 [Compound A247]	11 to 40
Cc1ccc(-c2ccc(C=C3SC(=S)N(c4cc(C(=O)O)cc(C(F)(F)F)c4)C3=O)cc2)cc1 [Compound A248]	< 10
CCc1ccccc1-c1ccc(C=C2SC(=S)N(c3cccc(C(=O)O)c3)C2=O)o1 [Compound A249]	< 10
CCc1ccccc1-c1ccc(C=C2SC(=S)N(c3cc(C(=O)O)ccc3F)C2=O)o1 [Compound A250]	< 10
O=C(O)c1cccc(N2C(=O)C(=Cc3nc(-c4ccccc4)cs3)SC2=S)c1 [Compound A251]	11 to 40
O=C(O)c1ccc(F)c(N2C(=O)C(=Cc3nc(-c4ccccc4)cs3)SC2=S)c1 [Compound A252]	11 to 40
COc1ccc(C)cc1-c1ccc(C=C2SC(=S)N(c3cccc(C(=O)O)c3)C2=O)o1 [Compound A253]	< 10
COc1ccc(C)cc1-c1ccc(C=C2SC(=S)N(c3cc(C(=O)O)ccc3F)C2=O)o1 [Compound A254]	< 10
O=C(O)c1cc(N2C(=O)C(=Cc3ccc(-c4ccccc4Cl)o3)SC2=S)ccc1F [Compound A255]	11 to 40
O=C(O)c1cc(N2C(=O)C(=Cc3ccc(-c4ccccc4F)o3)SC2=S)ccc1F [Compound A256]	11 to 40
Cc1ccccc1-c1ccc(C=C2SC(=S)N(c3ccc(F)c(C(=O)O)c3)C2=O)o1 [Compound A257]	11 to 40
O=C(O)c1cc(N2C(=O)C(=Cc3ccc(-c4ccc(Cl)cc4)o3)SC2=S)ccc1F [Compound A258]	< 10
O=C(O)c1cc(N2C(=O)C(=Cc3ccc(-c4ccc(F)cc4)o3)SC2=S)ccc1F [Compound A259]	11 to 40
Cc1ccc(-c2ccc(C=C3SC(=S)N(c4ccc(F)c(C(=O)O)c4)C3=O)o2)cc1 [Compound A260]	< 10
CC(=O)Nc1ccc(-c2ccc(C=C3SC(=S)N(c4cc(C(=O)O)cc(C(F)(F)F)c4)C3=O)o2)cc1 [Compound A261]	< 10
CC(=O)Nc1ccc(-c2ccc(C=C3SC(=S)N(c4ccc(F)c(C(=O)O)c4)C3=O)o2)cc1 [Compound A262]	11 to 40
CCCCc1ccc(-c2ccc(C=C3SC(=S)N(c4cccc(C(=O)O)c4)C3=O)o2)cc1 [Compound A263]	< 10
CCCCc1ccc(-c2ccc(C=C3SC(=S)N(c4cc(C(=O)O)ccc4F)C3=O)o2)cc1 [Compound A264]	< 10
CCCCc1ccc(-c2ccc(C=C3SC(=S)N(c4ccc(F)c(C(=O)O)c4)C3=O)o2)cc1 [Compound A265]	< 10
CCCCc1ccc(-c2ccc(C=C3SC(=S)N(c4cc(C(=O)O)cc(C(F)(F)F)c4)C3=O)o2)cc1 [Compound A266]	< 10

Structure (SMILES)	IC50 [µM]
CS(=O)(=O)c1ccc(-c2ccc(C=C3SC(=S)N(c4cc(C(=O)O)cc(C(F)(F)F)c4)C3=O)o2)cc1 [Compound A267]	< 10
CS(=O)(=O)c1ccc(-c2ccc(C=C3SC(=S)N(c4ccc(F)c(C(=O)O)c4)C3=O)o2)cc1 [Compound A268]	< 10
CCCc1ccc(-c2ccc(C=C3SC(=S)N(c4cccc(C(=O)O)c4)C3=O)o2)cc1 [Compound A269]	< 10
CCCc1ccc(-c2ccc(C=C3SC(=S)N(c4cc(C(=O)O)ccc4F)C3=O)o2)cc1 [Compound A270]	< 10
CCCc1ccc(-c2ccc(C=C3SC(=S)N(c4ccc(F)c(C(=O)O)c4)C3=O)o2)cc1 [Compound A271]	< 10
CCCc1ccc(-c2ccc(C=C3SC(=S)N(c4cc(C(=O)O)cc(C(F)(F)F)c4)C3=O)o2)cc1 [Compound A272]	11 to 40
CN(C)c1ccc(N2C(=O)C(=Cc3ccc(-c4ccccc4Cl)o3)SC2=S)cc1C(=O)O [Compound A274]	11 to 40
CN(C)c1ccc(N2C(=O)C(=Cc3ccc(-c4cccc(Cl)c4)o3)SC2=S)cc1C(=O)O [Compound A275]	11 to 40
O=C(O)c1cc(N2C(=O)C(=Cc3ccc(-c4ccccc4OCc4ccccc4)o3)SC2=S)ccc1F [Compound A279]	< 10
O=C(O)c1cc(N2C(=O)C(=Cc3ccc(-c4ccccc4C(F)(F)F)o3)SC2=S)ccc1F [Compound A280]	11 to 40
O=C(O)c1cc(N2C(=O)C(=Cc3ccc(-c4ccccc4OC(F)(F)F)o3)SC2=S)ccc1F [Compound A281]	< 10
CSc1ccccc1-c1ccc(C=C2SC(=S)N(c3ccc(F)c(C(=O)O)c3)C2=O)o1 [Compound A282]	< 10
O=C(O)c1cc(N2C(=O)C(=Cc3ccc(-c4ccccc4Oc4ccccc4)o3)SC2=S)ccc1F [Compound A283]	< 10
O=C(O)c1cc(N2C(=O)C(=Cc3ccc(-c4ccccc4-c4ccccc4)o3)SC2=S)ccc1F [Compound A284]	< 10
CNS(=O)(=O)c1ccc(-c2ccc(C=C3SC(=S)N(c4cccc(C(=O)O)c4)C3=O)o2)cc1 [Compound A286]	11 to 40
CNS(=O)(=O)c1ccc(-c2ccc(C=C3SC(=S)N(c4ccc(F)c(C(=O)O)c4)C3=O)o2)cc1 [Compound A287]	11 to 40
NS(=O)(=O)c1ccc(-c2ccc(C=C3SC(=S)N(c4cccc(C(=O)O)c4)C3=O)o2)cc1 [Compound A288]	11 to 40
O=C(O)c1ccc(-c2ccc(C=C3SC(=S)N(c4ccccc4)C3=O)o2)cc1O [Compound A289]	< 10
O=C(O)c1ccc(-c2ccc(C=C3SC(=S)N(c4cccc(O)c4)C3=O)o2)cc1 [Compound A290]	< 10
O=C(O)c1ccc(-c2ccc(C=C3SC(=S)N(c4ccc(O)cc4)C3=O)o2)cc1 [Compound A291]	< 10
NC(=O)c1cccc(N2C(=O)C(=Cc3ccc(-c4ccc(C(=O)O)cc4)o3)SC2=S)c1 [Compound A293]	11 to 40
NS(=O)(=O)c1ccc(N2C(=O)C(=Cc3ccc(-c4ccc(C(=O)O)cc4)o3)SC2=S)cc1 [Compound A294]	< 10
